The values below come from patent US11634412B2, “3-phosphoglycerate dehydrogenase inhibitors and uses thereof” (Raze Therapeutics, Inc., priority 2016, dated 2023).

The target in the assay is T1, Full length (FL) 3-Phosphoglycerate Dehydrogenase (PHGDH) (Homo sapiens, UniProt O43175).
T1 construct: Full length (FL) 3-Phosphoglycerate Dehydrogenase (PHGDH) Diaphorase coupled assay (500 uM NAD)
T1 sequence (O43175 1-533): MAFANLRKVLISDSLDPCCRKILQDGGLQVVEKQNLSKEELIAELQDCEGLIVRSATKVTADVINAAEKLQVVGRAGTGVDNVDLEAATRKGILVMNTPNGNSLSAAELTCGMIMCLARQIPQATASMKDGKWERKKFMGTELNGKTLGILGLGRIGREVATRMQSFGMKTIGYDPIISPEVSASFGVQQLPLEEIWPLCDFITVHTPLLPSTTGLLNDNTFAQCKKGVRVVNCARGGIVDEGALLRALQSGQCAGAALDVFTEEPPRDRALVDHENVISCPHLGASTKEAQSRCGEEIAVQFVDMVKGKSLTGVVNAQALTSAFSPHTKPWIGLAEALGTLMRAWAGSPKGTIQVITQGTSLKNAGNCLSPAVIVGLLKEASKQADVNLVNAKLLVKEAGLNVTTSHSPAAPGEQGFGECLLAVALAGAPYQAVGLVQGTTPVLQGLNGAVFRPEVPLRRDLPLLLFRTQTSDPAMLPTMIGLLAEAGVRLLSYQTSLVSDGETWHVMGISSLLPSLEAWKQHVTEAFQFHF
Description: Full length (FL) PHGDH Diaphorase coupled assay (20 uM NAD). The conditions noted are these: full-length PHGDH 10 nM, 30° C. 60 minutes, resorufin fluorescence. Format: biochemical. On the procedure:
PHGDH activity was determined by detecting the NADH produced during the reaction. Diaphorase was used to catalyze the oxidation of NADH with the concomitant reduction of resazurin to the fluorescent product resorufin. Resorufin fluorescence quantitatively reflected the production of NADH by the PHGDH reaction. To drive the forward reaction, two enzymes in the serine synthesis pathway subsequent to PHGDH, Phosphoserine aminotransferase (PSAT1) and phosphoserine phosphatase (PSPH) were also added to the reaction.
`Cn1c(C(=O)NC2(c3ccc(C(N)=O)cc3)CCOC2)cc2c(Cl)c(Cl)ccc21` (racemic) [I-131 e144, (±)-N-[3-(4-Carbamoylphenyl)tetrahydrofuran-3-yl]-4,5-dichloro-1-methyl-indole-2-carboxamide] yielded an IC50 of 1 to 5 µM. As for `Cn1c(C(=O)NC2(c3ccc(C#N)cc3)CCOC2)cc2c(Cl)c(Cl)ccc21` (racemic) [I-134 e143, 4,5-dichloro-N-[3-(4-cyanophenyl)tetrahydrofuran-3-yl]-1-methyl-indole-2-carboxamide], the figure is 1 to 5 µM; as for `Cn1c(C(=O)NC2(c3ccc(Br)cc3)CCOC2)cc2c(Cl)c(Cl)ccc21` (racemic) [I-135 e142, (±)-N-[3-(4-Bromophenyl)tetrahydrofuran-3-yl]-4,5-dichloro-1-methyl-indole-2-carboxamide], 1 to 5 µM. As for `Cn1c(C(=O)NC2(c3ccc(C(=O)O)cc3)CCOC2)cc2c(Cl)c(Cl)ccc21` (racemic) [I-136 e145, (±)-4-[3-[(4,5-Dichloro-1-methyl-indole-2-carbonyl)amino]tetrahydrofuran-3-yl]benzoic acid], the figure is 0.001 to 1 µM; as for `Cn1c(C(=O)NC2(c3ccc(C(=O)O)cc3)CCOC2)cc2c(Cl)c(Cl)ccc21` (racemic) [I-137 e141, (±)-4-[3-[(4,5-Dichloro-1-methyl-indole-2-carbonyl)amino]tetrahydrofuran-3-yl]benzoic acid], 0.001 to 1 µM; as for `CNC(=O)NS(=O)(=O)N1CCCC(NC(=O)c2cc3c(Cl)c(Cl)ccc3n2C)(c2cccc(CO)c2)C1` (racemic) [I-138 e16], 5 to 10 µM.

Regarding `CNC(=O)NS(=O)(=O)N1CCCC(NC(=O)c2cc3c(Cl)c(Cl)ccc3n2C)(c2cccc(C(=O)O)c2)C1` (racemic) [I-139 e14], the IC50 was 1 to 5 µM. Regarding `CNC(=O)NS(=O)(=O)N1CCCC(NC(=O)c2cc3c(Cl)c(Cl)ccc3n2C)(c2ccc(C(=O)O)cc2)C1` (racemic) [I-140 e15], the IC50 was 0.001 to 1 µM. As for `Cn1c(C(=O)NC2(c3cccc(C(N)=O)c3)CCOC2)cc2c(Cl)c(Cl)ccc21` (racemic) [I-141 e140, (±)-N-[3-(3-Carbamoylphenyl)tetrahydrofuran-3-yl]-4,5-dichloro-1-methyl-indole-2-carboxamide], the figure is 1 to 5 µM; as for `CNC(=O)NS(=O)(=O)N1CCCC(NC(=O)c2cc3c(Cl)c(Cl)ccc3n2C)(c2cccc(C#N)c2)C1` (racemic) [I-142 e7], 5 to 10 µM; as for `Cn1c(C(=O)NC2(c3cccc(C#N)c3)CCOC2)cc2c(Cl)c(Cl)ccc21` (racemic) [I-143 e139, (±)-4,5-dichloro-N-[3-(3-cyanophenyl)tetrahydrofuran-3-yl]-1-methyl-indole-2-carboxamide], 1 to 5 µM.

Compound `CNC(=O)NS(=O)(=O)N1CCCC(NC(=O)c2cc3c(Cl)c(Cl)ccc3n2C)(c2ccccc2)C1` (racemic) [I-146 e6] showed an IC50 of 5 to 10 µM.

`CC(=O)NS(=O)(=O)N1CCC(NC(=O)c2cc3c(Cl)c(Cl)ccc3n2C)(c2ccccc2)C1` (racemic) [I-147 e8] gave an IC50 of 1 to 5 µM. As for `Cn1c(C(=O)N[C@]2(c3ccc(C(=O)O)cc3)CCOC2)cc2c(Cl)c(Cl)ccc21` (single isomer, unassigned; peak 1) [I-133 or I-132 e146 peak 1], the figure is 0.001 to 1 µM. As for `Cn1c(C(=O)N[C@@]2(c3ccc(C(=O)O)cc3)CCOC2)cc2c(Cl)c(Cl)ccc21` (single isomer, unassigned; peak 2) [I-132 or I-133 e147 peak 2], the figure is 0.001 to 1 µM; as for `CC(=O)NS(=O)(=O)N1CCC(NC(=O)c2cc3c(Cl)c(Cl)ccc3n2C)(c2ccc(C(=O)O)cc2)CC1` [I-144 e11], 0.001 to 1 µM; as for `CC(=O)NS(=O)(=O)N1CCC(NC(=O)c2cc3c(Cl)c(Cl)ccc3n2C)(c2cccc(N)c2)CC1` [I-145 e13], 5 to 10 µM. The value for `CC(=O)NS(=O)(=O)N1CC(NC(=O)c2cc3c(Cl)c(Cl)ccc3n2C)(c2ccccc2)C1` [I-148 e9] was 5 to 10 µM. `CC(=O)NS(=O)(=O)N1CCC(NC(=O)c2cc3c(Cl)c(Cl)ccc3n2C)(c2cccc(CO)c2)CC1` [I-149 e12] came in with an IC50 of 5 to 10 µM. As to `CC(=O)Nc1cccc(C2(NC(=O)c3cc4c(Cl)c(Cl)ccc4n3C)CCN(C(C)=O)CC2)c1` [I-150 e5], the IC50 lay in the range of 5 to 10 µM. As for `CC(=O)NS(=O)(=O)N1CCC(NC(=O)c2cc3c(Cl)c(Cl)ccc3n2C)(c2cccc(C(=O)O)c2)CC1` [I-151 e10], the figure is 1 to 5 µM; as for `Cn1c(C(=O)NC2(c3ccccc3)CCN(S(=O)(=O)Nc3cnccn3)CC2)cc2c(Cl)c(Cl)ccc21` [I-152 e3], 1 to 5 µM. The value for `CC(=O)Nc1cccc(C2(NC(=O)c3cc4c(Cl)c(Cl)ccc4n3C)CCN(S(=O)(=O)NC(C)=O)CC2)c1` [I-153 e2] was 5 to 10 µM. The value for `CC(=O)NS(=O)(=O)N1CCC(NC(=O)c2cc3c(Cl)c(Cl)ccc3n2C)(c2cccc(C#N)c2)CC1` [I-154 e4] was 5 to 10 µM.
